Measurements: paper PMC5218480 (PLoS ONE, 2017)

Test system: MV-4-11 cells
Experiment: Gene expression microarray analysis (Affymetrix PrimeView) and GSEA
Type: cell-based, human
Design: RFU PODN (11730768_x_at) / Fold change /veh PODN (11730768_x_at) / RFU LINC00158 (11744669_a_at) / Fold change /veh LINC00158 (11744669_a_at) / RFU DUSP10 (11751237_a_at) / Fold change /veh DUSP10 (11751237_a_at) / RFU ID3 (11757404_x_at) / Fold change /veh ID3 (11757404_x_at) / RFU PLEKHG5 (11737974_s_at) / Fold change /veh PLEKHG5 (11737974_s_at) / RFU LRRC4B (11730491_at) / Fold change /veh LRRC4B (11730491_at) / RFU GIMAP4 (11747438_a_at) / Fold change /veh GIMAP4 (11747438_a_at) / RFU KRT8 (11758183_x_at) / Fold change /veh KRT8 (11758183_x_at) / RFU CNN1 (11734310_a_at) / Fold change /veh CNN1 (11734310_a_at) / RFU VPS37D (11726825_at) / Fold change /veh VPS37D (11726825_at) / RFU C10orf10 (11716522_x_at) / Fold change /veh C10orf10 (11716522_x_at) / RFU KIR2DL2 /// KIR2DL4 /// KIR2DL5A /// KIR2DL5B /// KIR2DS1 /// KIR2DS2 /// KIR2DS3 /// KIR2DS4 /// KIR3DL3 /// KIR3DL3 /// KIR3DS1 (11738374_at) / Fold change /veh KIR2DL2 /// KIR2DL4 /// KIR2DL5A /// KIR2DL5B /// KIR2DS1 /// KIR2DS2 /// KIR2DS3 /// KIR2DS4 /// KIR3DL3 /// KIR3DL3 /// KIR3DS1 (11738374_at) / RFU C1QL1 (11718748_at) / Fold change /veh C1QL1 (11718748_at) / RFU TMPRSS4 (11747572_a_at) / Fold change /veh TMPRSS4 (11747572_a_at) / RFU HAMP (11756126_x_at) / Fold change /veh HAMP (11756126_x_at) / RFU RNFT2 (11725882_a_at) / Fold change /veh RNFT2 (11725882_a_at) / RFU NR4A2 (11747474_a_at) / Fold change /veh NR4A2 (11747474_a_at) / RFU ABCC12 (11746883_a_at) / Fold change /veh ABCC12 (11746883_a_at) / RFU TMEM136 (11760407_x_at) / Fold change /veh TMEM136 (11760407_x_at) / RFU CLDN22 /// WWC2 (11732394_at) / Fold change /veh CLDN22 /// WWC2 (11732394_at) / RFU HLA-DPB1 (11760878_x_at) / Fold change /veh HLA-DPB1 (11760878_x_at) / RFU SPINT1 (11716480_a_at) / Fold change /veh SPINT1 (11716480_a_at) / RFU GAP43 (11754022_s_at) / Fold change /veh GAP43 (11754022_s_at) / RFU A4GNT (11735810_at) / Fold change /veh A4GNT (11735810_at) / RFU PRB3 (11715151_x_at) / Fold change /veh PRB3 (11715151_x_at) / RFU TUBB4B (11761932_at) / Fold change /veh TUBB4B (11761932_at) / RFU CAPN14 (11732068_a_at) / Fold change /veh CAPN14 (11732068_a_at) / RFU TMCC2 (11721928_a_at) / Fold change /veh TMCC2 (11721928_a_at) / RFU IRGQ (11745062_a_at) / Fold change /veh IRGQ (11745062_a_at) / RFU FAM174B (11720279_a_at) / Fold change /veh FAM174B (11720279_a_at) / RFU TMPRSS4 (11748680_a_at) / Fold change /veh TMPRSS4 (11748680_a_at) / RFU FAM212B (11763350_a_at) / Fold change /veh FAM212B (11763350_a_at) / RFU PLEKHG5 (11743358_a_at) / Fold change /veh PLEKHG5 (11743358_a_at) / RFU ZSCAN30 (11745921_a_at) / Fold change /veh ZSCAN30 (11745921_a_at) / RFU CMKLR1 (11741424_a_at) / Fold change /veh CMKLR1 (11741424_a_at) / RFU LOC101060620 /// MAPK8IP1 (11723275_at) / Fold change /veh LOC101060620 /// MAPK8IP1 (11723275_at) / RFU SPTSSB (11747773_x_at) / Fold change /veh SPTSSB (11747773_x_at) / RFU PRSS12 (11739890_at) / Fold change /veh PRSS12 (11739890_at) / RFU BIN1 (11741810_x_at) / Fold change /veh BIN1 (11741810_x_at) / RFU WNT11 (11732464_a_at) / Fold change /veh WNT11 (11732464_a_at) / RFU C10orf10 (11716521_a_at) / Fold change /veh C10orf10 (11716521_a_at) / RFU C5orf56 (11738089_at) / Fold change /veh C5orf56 (11738089_at) / RFU CYB561 (11721691_x_at) / Fold change /veh CYB561 (11721691_x_at) / RFU ANKRD19P (11752326_a_at) / Fold change /veh ANKRD19P (11752326_a_at) / RFU OR2T12 /// OR2T33 /// OR2T8 (11738714_s_at) / Fold change /veh OR2T12 /// OR2T33 /// OR2T8 (11738714_s_at) / RFU VCAN (11748164_a_at) / Fold change /veh VCAN (11748164_a_at) / RFU JSRP1 (11732532_at) / Fold change /veh JSRP1 (11732532_at) / RFU KRTAP10-11 (11738290_x_at) / Fold change /veh KRTAP10-11 (11738290_x_at) / RFU MYO3A (11730013_a_at) / Fold change /veh MYO3A (11730013_a_at) / RFU EBF3 (11725865_a_at) / Fold change /veh EBF3 (11725865_a_at) / RFU CAMK2N1 (11719241_x_at) / Fold change /veh CAMK2N1 (11719241_x_at) / RFU C5orf56 (11738088_a_at) / Fold change /veh C5orf56 (11738088_a_at) / RFU OLFML3 (11715873_a_at) / Fold change /veh OLFML3 (11715873_a_at) / RFU LOC100653217 /// NTM (11731650_a_at) / Fold change /veh LOC100653217 /// NTM (11731650_a_at) / RFU MAPK11 (11762145_a_at) / Fold change /veh MAPK11 (11762145_a_at) / RFU FIZ1 (11724087_x_at) / Fold change /veh FIZ1 (11724087_x_at) / RFU OASL (11726364_x_at) / Fold change /veh OASL (11726364_x_at) / RFU SOX15 (11748057_x_at) / Fold change /veh SOX15 (11748057_x_at) / RFU CD79A (11719716_a_at) / Fold change /veh CD79A (11719716_a_at) / RFU HIST1H1D (11736915_at) / Fold change /veh HIST1H1D (11736915_at) / RFU CASKIN2 (11723855_a_at) / Fold change /veh CASKIN2 (11723855_a_at) / RFU LOC730098 (11760151_x_at) / Fold change /veh LOC730098 (11760151_x_at) / RFU OR4N2 (11742367_at) / Fold change /veh OR4N2 (11742367_at) / RFU PRRT2 (11749266_a_at) / Fold change /veh PRRT2 (11749266_a_at) / RFU SNX32 (11753110_a_at) / Fold change /veh SNX32 (11753110_a_at) / RFU CDHR5 (11726645_a_at) / Fold change /veh CDHR5 (11726645_a_at) / RFU RCAN1 (11760418_a_at) / Fold change /veh RCAN1 (11760418_a_at) / RFU FAM167A (11723789_a_at) / Fold change /veh FAM167A (11723789_a_at) / RFU FAM26E (11764081_at) / Fold change /veh FAM26E (11764081_at) / RFU ISYNA1 (11749810_s_at) / Fold change /veh ISYNA1 (11749810_s_at) / RFU ACY1 (11761880_at) / Fold change /veh ACY1 (11761880_at) / RFU 11764098_at / Fold change /veh 11764098_at / RFU SAMD14 (11745864_x_at) / Fold change /veh SAMD14 (11745864_x_at) / RFU NPB (11741838_a_at) / Fold change /veh NPB (11741838_a_at) / RFU TMPRSS6 (11731388_a_at) / Fold change /veh TMPRSS6 (11731388_a_at) / RFU KRTAP10-2 (11738614_at) / Fold change /veh KRTAP10-2 (11738614_at) / RFU ARHGAP8 /// PRR5-ARHGAP8 (11727945_x_at) / Fold change /veh ARHGAP8 /// PRR5-ARHGAP8 (11727945_x_at) / RFU KRTAP5-7 /// NADSYN1 (11734609_at) / Fold change /veh KRTAP5-7 /// NADSYN1 (11734609_at) / RFU RASL12 (11751679_a_at) / Fold change /veh RASL12 (11751679_a_at) / RFU CDKN2B (11736163_a_at) / Fold change /veh CDKN2B (11736163_a_at) / RFU PRF1 (11729649_at) / Fold change /veh PRF1 (11729649_at) / RFU, ZNF638 /// ZNF638-IT1 / Fold change vs veh, ZNF638 /// ZNF638-IT1 / RFU, PANK3 / Fold change vs veh, PANK3 / RFU, SH3YL1 / Fold change vs veh, SH3YL1 / RFU, ZEB2 / Fold change vs veh, ZEB2 / RFU, NRIP1 / Fold change vs veh, NRIP1 / RFU, PTTG1IP / Fold change vs veh, PTTG1IP / RFU, CAPN2 / Fold change vs veh, CAPN2 / RFU, MED14 / Fold change vs veh, MED14 / RFU, SNORA58 / Fold change vs veh, SNORA58 / RFU, C1orf63 / Fold change vs veh, C1orf63 / RFU, LRRFIP1 / Fold change vs veh, LRRFIP1 / RFU, NDUFAF7 / Fold change vs veh, NDUFAF7 / RFU, SLC12A2 / Fold change vs veh, SLC12A2 / RFU, IBTK / Fold change vs veh, IBTK / RFU, ESF1 / Fold change vs veh, ESF1 / Fold change vs veh, TMEM50B / RFU, TAOK1 / Fold change vs veh, TAOK1 / RFU, ACBD3 / Fold change vs veh, ACBD3 / RFU, TMA16 / Fold change vs veh, TMA16 / RFU, RWDD3 / Fold change vs veh, RWDD3 / RFU, BCAT1 / Fold change vs veh, BCAT1 / RFU, EDEM3 / Fold change vs veh, EDEM3 / RFU, TMEM33 / Fold change vs veh, TMEM33 / RFU, WDR75 / Fold change vs veh, WDR75 / RFU, AHCTF1 / Fold change vs veh, AHCTF1 / RFU, TFRC / Fold change vs veh, TFRC / RFU, ZDHHC17 / Fold change vs veh, ZDHHC17 / RFU, NOM1 / Fold change vs veh, NOM1 / RFU, ARL8B / Fold change vs veh, ARL8B / RFU, ZBTB11 / Fold change vs veh, ZBTB11 / RFU, TAMM41 / Fold change vs veh, TAMM41 / RFU, KIAA1704 /// LOC100996395 / Fold change vs veh, KIAA1704 /// LOC100996395 / RFU, ING1 / Fold change vs veh, ING1 / RFU, TRMT61B / Fold change vs veh, TRMT61B / RFU, FUBP3 / Fold change vs veh, FUBP3 / RFU, TP53 / Fold change vs veh, TP53 / RFU, TNKS2 / Fold change vs veh, TNKS2 / RFU, ZFP14 / Fold change vs veh, ZFP14 / RFU, ACTR2 / Fold change vs veh, ACTR2 / RFU, PPP3R1 / Fold change vs veh, PPP3R1 / RFU, PIK3R1 / Fold change vs veh, PIK3R1 / RFU, HNRNPA1 / Fold change vs veh, HNRNPA1 / RFU, RNF170 / Fold change vs veh, RNF170 / RFU, ZNF28 / Fold change vs veh, ZNF28 / RFU, RNGTT / Fold change vs veh, RNGTT / RFU, OGT / Fold change vs veh, OGT / RFU, BRD1 / Fold change vs veh, BRD1 / RFU, MARS / Fold change vs veh, MARS / RFU, ZNF655 / Fold change vs veh, ZNF655 / RFU, FAHD1 / Fold change vs veh, FAHD1 / RFU, BDP1 / Fold change vs veh, BDP1 / RFU, LRRCC1 / Fold change vs veh, LRRCC1 / RFU, ARID1A / Fold change vs veh, ARID1A / RFU, ZNF146 / Fold change vs veh, ZNF146 / RFU, ZNF330 / Fold change vs veh, ZNF330 / RFU, GPN3 / Fold change vs veh, GPN3 / RFU, C9orf123 / Fold change vs veh, C9orf123 / RFU, N4BP2L2 / Fold change vs veh, N4BP2L2 / RFU, ARFIP1 / Fold change vs veh, ARFIP1 / RFU, FAM179B / Fold change vs veh, FAM179B / RFU, BCL10 / Fold change vs veh, BCL10 / RFU, UHRF1BP1L / Fold change vs veh, UHRF1BP1L / RFU, BET1 / Fold change vs veh, BET1 / RFU, CNOT2 / Fold change vs veh, CNOT2 / RFU, ZNF268 / Fold change vs veh, ZNF268 / Fold change vs veh, ZNF507 / RFU, DGCR2 / Fold change vs veh, DGCR2 / RFU, WDSUB1 / Fold change vs veh, WDSUB1 / Fold change vs veh, HSP90B1 /// MIR3652 / RFU, ADSS / Fold change vs veh, ADSS / RFU, GK / Fold change vs veh, GK / RFU, ZNF148 / Fold change vs veh, ZNF148 / RFU, TAF9 / Fold change vs veh, TAF9 / RFU, SLC1A5 / Fold change vs veh, SLC1A5 / RFU, SLMO2 / Fold change vs veh, SLMO2 / RFU, ABCC4 / Fold change vs veh, ABCC4 / RFU, LOC101060439 /// RAP1B / Fold change vs veh, LOC101060439 /// RAP1B / RFU, RFX7 / Fold change vs veh, RFX7 / RFU, GTPBP10 / Fold change vs veh, GTPBP10 / RFU, CNEP1R1 / Fold change vs veh, CNEP1R1 / RFU, BIVM-ERCC5 /// ERCC5 / Fold change vs veh, BIVM-ERCC5 /// ERCC5 / RFU, ILF3 / Fold change vs veh, ILF3 / RFU 11762660_at / Fold change /veh 11762660_at / RFU VCAN (11757783_s_at) / Fold change /veh VCAN (11757783_s_at) / RFU DDX43 (11728927_at) / Fold change /veh DDX43 (11728927_at) / RFU KRT8 (11758188_x_at) / Fold change /veh KRT8 (11758188_x_at) / RFU NKD1 (11759106_at) / Fold change /veh NKD1 (11759106_at) / RFU SRD5A1 (11742802_a_at) / Fold change /veh SRD5A1 (11742802_a_at) / RFU TPSAB1 /// TPSB2 (11721975_s_at) / Fold change /veh TPSAB1 /// TPSB2 (11721975_s_at) / RFU GSTM3 (11746129_a_at) / Fold change /veh GSTM3 (11746129_a_at) / RFU IL23R (11737362_x_at) / Fold change /veh IL23R (11737362_x_at) / RFU TMEM51 (11727254_a_at) / Fold change /veh TMEM51 (11727254_a_at) / RFU PIWIL2 (11732686_x_at) / Fold change /veh PIWIL2 (11732686_x_at) / RFU ORM1 (11744905_x_at) / Fold change /veh ORM1 (11744905_x_at) / RFU CCDC152 (11743942_at) / Fold change /veh CCDC152 (11743942_at) / RFU ECM1 (11717891_a_at) / Fold change /veh ECM1 (11717891_a_at) / RFU IL23R (11748794_a_at) / Fold change /veh IL23R (11748794_a_at) / RFU TNFAIP8L3 (11732012_x_at) / Fold change /veh TNFAIP8L3 (11732012_x_at) / RFU MBOAT4 (11741988_at) / Fold change /veh MBOAT4 (11741988_at) / RFU 11764193_at / Fold change /veh 11764193_at / RFU TMEM53 (11763286_at) / Fold change /veh TMEM53 (11763286_at) / RFU MAGEB2 (11727129_at) / Fold change /veh MAGEB2 (11727129_at) / RFU TMEM200A (11744735_a_at) / Fold change /veh TMEM200A (11744735_a_at) / RFU CCDC152 (11751479_a_at) / Fold change /veh CCDC152 (11751479_a_at) / RFU FAM211A (11726209_a_at) / Fold change /veh FAM211A (11726209_a_at) / RFU RGS16 (11746705_a_at) / Fold change /veh RGS16 (11746705_a_at) / RFU VCAN (11755009_s_at) / Fold change /veh VCAN (11755009_s_at) / RFU RHOB (11743442_s_at) / Fold change /veh RHOB (11743442_s_at) / RFU RGS16 (11720943_a_at) / Fold change /veh RGS16 (11720943_a_at) / RFU RGS16 (11720944_at) / Fold change /veh RGS16 (11720944_at) / RFU, VPS4B / Fold change vs veh, VPS4B / RFU, CREB1 / Fold change vs veh, CREB1 / RFU, DNAJC13 / Fold change vs veh, DNAJC13 / RFU, GNAQ / Fold change vs veh, GNAQ / RFU, CDK5R1 / Fold change vs veh, CDK5R1 / RFU, ZRANB3 / Fold change vs veh, ZRANB3 / RFU, CUL4A / Fold change vs veh, CUL4A / RFU, CCNY / Fold change vs veh, CCNY / RFU, UFL1 / Fold change vs veh, UFL1 / RFU, COG3 / Fold change vs veh, COG3 / RFU, DIAPH2 / Fold change vs veh, DIAPH2 / RFU, SKA2 / Fold change vs veh, SKA2 / RFU, AFF3 / Fold change vs veh, AFF3 / RFU, LMF1 / Fold change vs veh, LMF1 / RFU, IPO11 / Fold change vs veh, IPO11 / RFU, DFFB / Fold change vs veh, DFFB / RFU, FOXP1 / Fold change vs veh, FOXP1 / RFU, CARD8 / Fold change vs veh, CARD8 / RFU, STRN3 / Fold change vs veh, STRN3 / RFU, ADK / Fold change vs veh, ADK / RFU, RASSF2 / Fold change vs veh, RASSF2 / RFU, WIPF1 / Fold change vs veh, WIPF1 / RFU, LARP1B / Fold change vs veh, LARP1B / RFU, RASA1 / Fold change vs veh, RASA1 / RFU, RB1 / Fold change vs veh, RB1 / RFU, PPFIA1 / Fold change vs veh, PPFIA1 / RFU, MAT2A / Fold change vs veh, MAT2A / RFU, CCT5 / Fold change vs veh, CCT5 / RFU, WDR92 / Fold change vs veh, WDR92 / RFU, CUX1 / Fold change vs veh, CUX1 / RFU, TTC7A / Fold change vs veh, TTC7A / RFU, TMEM135 / Fold change vs veh, TMEM135 / RFU, DEPTOR / Fold change vs veh, DEPTOR / RFU, CPM / Fold change vs veh, CPM / RFU, DNAJB6 / Fold change vs veh, DNAJB6 / RFU, CACNA2D3 / Fold change vs veh, CACNA2D3 / RFU, DTX4 / Fold change vs veh, DTX4 / RFU, TFCP2 / Fold change vs veh, TFCP2 / RFU, GMCL1 /// GMCL1P1 / Fold change vs veh, GMCL1 /// GMCL1P1 / RFU, AEBP2 / Fold change vs veh, AEBP2 / RFU, SNHG1 /// SNORD22 /// SNORD25 /// SNORD26 /// SNORD27 /// SNORD28 /// SNORD29 /// SNORD31 / Fold change vs veh, SNHG1 /// SNORD22 /// SNORD25 /// SNORD26 /// SNORD27 /// SNORD28 /// SNORD29 /// SNORD31 / Fold change (Aza/veh), C12orf56 (ProbeSet 11735607_a_at) / Fold change (ACY-1035/veh), C12orf56 (ProbeSet 11735607_a_at) / Fold change (Aza/veh), FGFR1OP (ProbeSet 11751329_s_at) / Fold change (ACY-1035/veh), FGFR1OP (ProbeSet 11751329_s_at) / Fold change (Aza/veh), VPS36 (ProbeSet 11739960_a_at) / Fold change (ACY-1035/veh), VPS36 (ProbeSet 11739960_a_at) / RFU SYPL1 (11715823_x_at) / Fold change /veh SYPL1 (11715823_x_at) / RFU IGFBP7 (11715501_s_at) / Fold change /veh IGFBP7 (11715501_s_at) / RFU REEP3 (11722064_at) / Fold change /veh REEP3 (11722064_at) / RFU IGLL1 (11728026_x_at) / Fold change /veh IGLL1 (11728026_x_at): dose or concentration left out as unconfirmed
Details: MV-4-11 cells, 48 hours

## Nc1ccc(-c2cccs2)cc1NC(=O)c1ccc2c(c1)cc(C1CC1)n2CCN1CCOCC1 [ACY-1035]
  Fold change /veh IRGQ (11745062_a_at): 0.91
